Measurements from patent US20080312326A1, “Method for the Prevention and/or Treatment of Neurodegenerative Diseases Characterized by Administering and Ep1 Receptor Antagonist” (THE JOHN HOPKINS UNIVERSITY, priority 2005, published 2008).

How the values were obtained:
[1] = system: NMDA-induced brain lesion in C57BL/6 mice; assay: NMDA-induced brain lesion after ICV pretreatment, wildtype mice; assay type: in vivo; details: for brain lesion volume (NMDA-induced): lesion at 48 h, vs NMDA-lesion and vehicle-NMDA groups
Description: (§1) Following protocols approved by the Institutional Animal Care and Use Committee of Johns Hopkins University, adult male C57BL/6 mice (Charles River, Wilmington, Mass.) and EP1^−/−, weighing 20-25 g were used in this study.
Weight and rectal temperature of each mouse was recorded before the surgical procedure. The mouse was subjected to intracerebroventricular (ICV) injection of vehicle or freshly prepared compound A or compound B followed by unilateral intrastriatal injection of NMDA, prepared in phosphate buffer saline (pH˜7.2) (J. Neurosci. 1997, 17, 6908-6917). In brief, each mouse was anesthetized, maintained at 1.0% halothane, and mounted on a stereotaxic frame (Stoelting Co., Wood Dale, Ill.). Varying body-weight (BW) doses of compound A (0.1 nmol/kg BW, n=8; 1 nmol/kg BW, n=12; 10 nmol/kg BW, n=8) or compound B (0.1 nmol/kg BW, n=8; 1 nmol/kg BW, n=12; 10 nmol/kg BW, n=9) were injected into the right lateral ventricle (stereotaxic coordinates PA-0.5 mm, lateral-1.0 mm from bregma, and ventral-2.5 mm relative to dura) over 30 sec, with the help of 1-μL Hamilton® syringe, and the needle was left in place for an additional 2 min. Twenty minutes later, 0.3 μl of 50 mM NMDA was injected into the right striatum over 2 min and the needle was left in place for additional 5 min. The NMDA-lesion control group (n=12) received 0.3 μL NMDA, and the vehicle-NMDA control group (n=11) received 0.2 μL vehicle ICV, followed by 0.3 μL NMDA in the striatum. Sham control and vehicle control groups were treated similarly with saline. After injections, mice were placed in a thermoregulated chamber maintained at 31° C. and returned to their cages after full recovery from anesthesia. Throughout the experimental procedure, rectal temperature of mice was monitored and maintained at 37.0±0.5° C.
At 48 h […], weight and rectal temperature were recorded and brains were harvested and immediately frozen in 2-methyl butane (pre-cooled over dry ice). Brain sections were cut on a cryostat and stained with cresyl violet to estimate lesion volume. Images of the brain sections were taken and analyzed with the help of SigmaScan Pro 5.0 (Systat, Inc., Point Richmond, Calif.).
Data were analyzed using SigmaStat 2.0 (Systat), and significance level was set at p<0.05. Statistical analysis was performed by Student's t-test. All data are reported as means±s.d.

[2] = system: NMDA-induced toxicity in EP1−/− mice; assay: NMDA-induced brain lesion after ICV treatment, EP1−/− mice; assay type: in vivo; details: ICV treatment of EP1−/− mice, compared to the untreated EP1−/− group
Description: as §1
Weight and rectal temperature of each mouse was recorded before the surgical procedure. The mouse was subjected to intracerebroventricular (ICV) injection of vehicle or freshly prepared compound A or compound B followed by unilateral intrastriatal injection of NMDA, prepared in phosphate buffer saline (pH˜7.2) (J. Neurosci. 1997, 17, 6908-6917). In brief, each mouse was anesthetized, maintained at 1.0% halothane, and mounted on a stereotaxic frame (Stoelting Co., Wood Dale, Ill.). […] Throughout the experimental procedure, rectal temperature of mice was monitored and maintained at 37.0±0.5° C.
At 48 h […], weight and rectal temperature were recorded and brains were harvested and immediately frozen in 2-methyl butane (pre-cooled over dry ice). […] Images of the brain sections were taken and analyzed with the help of SigmaScan Pro 5.0 (Systat, Inc., Point Richmond, Calif.).
Data were analyzed using SigmaStat 2.0 (Systat), and significance level was set at p<0.05. […]

[3] = 0.1 nmol/kg BW ICV pretreatment 20 min before intrastriatal 50 mM NMDA
[4] = 1 nmol/kg BW ICV pretreatment 20 min before intrastriatal 50 mM NMDA
[5] = 10 nmol/kg BW ICV pretreatment 20 min before intrastriatal 50 mM NMDA

CCCC[C@H](C)C[C@H](O)/C=C/[C@H]1[C@H](O)CC(=O)[C@@H]1CC(=O)C1CCC(C(=O)O)CC1 (stereo partly drawn) [compound A, 4-({(1R,2R,3R)-3-hydroxy-2-[(1E,3S,5S)-3-hydroxy-5-methylnon-1-enyl]-5-oxocyclopentyl}acetyl)cyclohexanecarboxylic acid, reference compound]
brain lesion volume (NMDA-induced) [1, 3]: non-significant increases | brain lesion volume (NMDA-induced) [1, 4]: non-significant increases | brain lesion volume (NMDA-induced) [1, 5]: significant increase

CC(C)CN(c1ccc(C(F)(F)F)cc1OCc1ccc(/C=C/C(=O)O)cc1)S(=O)(=O)c1ccco1 [compound B, (2E)-3-(4-{[2-[(2-furylsulfonyl)(isobutyl)amino]-5-(trifluoromethyl)phenoxy]methyl}phenyl)acrylic acid]
brain lesion volume (NMDA-induced) [1, 3]: No significant protection | brain lesion volume (NMDA-induced) [1, 4]: significantly decreased | brain lesion volume (NMDA-induced) [1, 5]: significantly decreased | toxicity (lesion volume) of the 10 nmol/kg BW dose compared to the 1 mmol/kg BW group ([1]; 10 nmol/kg BW ICV pretreatment, NMDA-induced lesion): slight, but not significant, toxicity | lesion volume to NMDA-induced toxicity in EP1−/− mice [2]: no significant difference
